Measured values from EP4793275A1, “AT2R ANTAGONIST AND USE THEREOF” (Hubei Bio-Pharmaceutical Industrial Technological Institute …, priority 2023, dated 2025).

How the values were obtained:
AT2R = biological target: T1, AT2R (Homo sapiens, UniProt P50052); assay: Binding assay of compounds to AT2R (Tag-lite HTRF ligand binding kit); conditions: labeled cells, Tag-lite red fluorescent labeled ligand, 1 hour at room temperature
T1 construct: purchased Cisbio C1TT1AT2
T1 sequence (P50052 1-363): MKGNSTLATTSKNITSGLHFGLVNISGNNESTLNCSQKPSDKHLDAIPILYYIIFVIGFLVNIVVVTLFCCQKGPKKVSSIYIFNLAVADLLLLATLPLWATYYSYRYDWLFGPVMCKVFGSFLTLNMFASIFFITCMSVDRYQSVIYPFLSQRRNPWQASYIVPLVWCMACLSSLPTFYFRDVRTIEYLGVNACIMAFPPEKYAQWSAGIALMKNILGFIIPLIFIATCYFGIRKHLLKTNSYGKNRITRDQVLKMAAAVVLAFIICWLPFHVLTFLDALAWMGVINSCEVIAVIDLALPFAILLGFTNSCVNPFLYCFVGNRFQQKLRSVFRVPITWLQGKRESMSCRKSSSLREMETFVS
Description: The assay was performed in accordance with the manufacturer instructions of Angiotensin AT2 Receptor Ligand Binding Assay Kit (#C1TT1AT2, Cisbio). First, a 10 mM compound stock solution was diluted in a gradient at a 5× dilution ratio (including 10 concentrations, each with two replicates). 160 nL of compounds at different concentrations was added to a 384-well plate. 40 µL of 1× TLB was added to each well, and the mixture was shaken at room temperature for 15 minutes. A 15 mL centrifuge tube added with 5 mL of 1×TLB was prepared in advance. The frozen labeled cells were thawed in a water bath at 37°C (for 1 to 2 minutes), and the thawed cells were quickly transferred to the above 15 mL centrifuge tube. The mixture was mixed well and centrifuged at 1,000 g at room temperature for 5 minutes. The supernatant was removed, and the cells were resuspended by adding 2.7 mL 1× TLB. A new 384-well plate was taken, and 10 µL of mixed cells were added into the corresponding wells according to the assay design. 5 µL of 4× compound solution and 5 µL of 4× Tag-lite red fluorescent labeled ligand were added to each well. After incubation at room temperature for 1 hour, data was read using EnVision with an HTRF mode. The excitation light intensities at 665nM and 615nM in each well were read respectively, and the ratio was calculated (Ratio=A665nM/B615nM). The IC50 value was calculated by means of GraphPad Prism8 software, where X represents logarithmic value of compound concentration; and Y represents ratio of A665nM/B615nM. [Table 1] Binding activity of compounds to AT2R

[1] = Pharmacokinetic test in rats; assay type: in vivo; conditions: rat; male SD rats, oral administration by gavage, 10 mg/kg, plasma
Description: For the pharmacokinetic test of rats, 3 male SD rats (180 g to 240 g) were employed and fasted overnight. The rats were orally administered a dose of 10 mg/kg by gavage. Blood was collected before the administration, and at 15 minutes, 30 minutes, 1 hour, 2 hours, 4 hours, 6 hours, 8 hours, and 24 hours after the administration. The blood samples were centrifuged at 8,000 rpm and at 4°C for 6 minutes, and plasma was collected and stored at -20°C. The plasma at each time point was taken and mixed with 3 to 5 volumes of an acetonitrile solution containing an internal standard. The mixture was vortexed for 1 minute, and centrifuged at 13,000 rpm and at 4°C for 10 minutes. The supernatant was collected and mixed with 3 volumes of water. An appropriate amount of the mixture was taken for LC-MS/MS analysis. The main pharmacokinetic parameters were analyzed by a non-compartmental model using WinNonlin 7.0 software. [Table 2] Results of Pharmacokinetic Test in Rats

hERG potassium channel = biological target: T2, hERG potassium channel (Homo sapiens, UniProt Q12809); assay: Effects on hERG channel currents by manual patch-clamp; assay type: cell-based; conditions: HEK-293 cell line stably expressing hERG potassium channel, tail current, room temperature; read-out: IC50 (inhibitory effects on hERG)
T2 construct: host or cells: HEK-293
T2 sequence (Q12809 whole entry): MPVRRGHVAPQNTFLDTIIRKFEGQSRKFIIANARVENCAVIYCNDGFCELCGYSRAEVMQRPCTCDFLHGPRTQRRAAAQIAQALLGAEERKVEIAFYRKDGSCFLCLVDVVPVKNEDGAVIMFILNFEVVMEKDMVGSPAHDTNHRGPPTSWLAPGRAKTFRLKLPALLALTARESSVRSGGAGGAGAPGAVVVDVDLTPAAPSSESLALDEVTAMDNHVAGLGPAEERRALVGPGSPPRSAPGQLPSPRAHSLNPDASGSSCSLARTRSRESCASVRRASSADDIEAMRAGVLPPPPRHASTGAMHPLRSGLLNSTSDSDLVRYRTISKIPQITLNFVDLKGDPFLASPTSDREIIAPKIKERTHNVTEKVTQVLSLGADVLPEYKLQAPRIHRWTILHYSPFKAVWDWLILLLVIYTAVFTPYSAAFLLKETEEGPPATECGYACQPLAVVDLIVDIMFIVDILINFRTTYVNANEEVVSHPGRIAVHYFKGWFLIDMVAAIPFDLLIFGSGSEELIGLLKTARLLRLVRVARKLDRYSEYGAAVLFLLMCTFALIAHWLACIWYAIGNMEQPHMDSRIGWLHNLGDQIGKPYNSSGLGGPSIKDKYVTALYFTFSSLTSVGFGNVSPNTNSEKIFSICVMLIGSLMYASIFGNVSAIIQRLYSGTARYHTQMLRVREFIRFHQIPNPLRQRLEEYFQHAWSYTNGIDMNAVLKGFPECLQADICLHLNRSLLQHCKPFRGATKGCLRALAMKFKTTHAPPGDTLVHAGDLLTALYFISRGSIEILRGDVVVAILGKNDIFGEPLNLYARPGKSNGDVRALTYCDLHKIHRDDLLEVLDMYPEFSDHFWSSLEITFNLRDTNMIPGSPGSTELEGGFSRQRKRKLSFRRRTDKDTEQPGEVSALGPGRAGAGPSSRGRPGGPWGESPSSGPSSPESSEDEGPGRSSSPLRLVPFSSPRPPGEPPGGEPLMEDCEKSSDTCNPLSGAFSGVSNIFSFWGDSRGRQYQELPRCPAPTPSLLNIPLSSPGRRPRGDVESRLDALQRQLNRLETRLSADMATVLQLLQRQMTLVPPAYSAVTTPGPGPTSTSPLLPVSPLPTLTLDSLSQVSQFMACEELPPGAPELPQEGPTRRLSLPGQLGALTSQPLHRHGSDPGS
Description: A manual patch-clamp assay was conducted using an HEK-293 cell line stably expressing an hERG potassium channel. hERG potassium channel cells were purchased from Creacell Co., Ltd. (catalog No.: A-0320). Final concentrations of test compounds were freshly prepared on the day of the assay, and then the test compounds were dissolved in an extracellular solution. The extracellular solution (mM) was: […], 3.5 mM KCl, 1 mM MgCl2·6H2O, 2 mM CaCl2·2H2O, 10 mM D-Glucose, 10 mM HEPES, 1.25 mM NaH2PO4·2H2O; pH 7.4 (titrated with NaOH). An intracellular solution (mM) was: 20 mM KCl, 115 mM K-Aspartic, 1 mM MgCl2·6H2O, 5 mM EGTA, 10 mM HEPES, 2 mM Na2-ATP; pH 7.4 (titrated with KOH).
Electrophysiological Assay: After whole-cell patch-clamp formation, the cell membrane potential was clamped at -80 mV. The holding potential was depolarized to -50 mV from -80 mV and maintained for 0.5 seconds (for leak current detection), then stepped to 30 mV for 2.5 seconds, and then rapidly repolarized back to -50 mV for 4 seconds to elicit a tail current of the hERG channel. Data was collected repeatedly every 10 seconds to observe the effects of the drug on hERG tail current (Peak tail currentcompound). A stimulation at -50 mV for 0.5 seconds was used for the leak current detection. Drug administration was initiated after the hERG current recorded in the whole-cell configuration stabilized. After each drug concentration was applied for 5 minutes (or until the current stabilized), the next concentration was tested. One or more concentrations were tested for each test compound. A current detected in each cell in a compound-free extracellular solution (Peak tail currentControl) served as an internal control for the corresponding cell. […]
Data Analysis: The inhibition rate corresponding to each drug concentration was calculated (1-(Peak tail currentcompound/Peak tail currentControl)), and the concentration-response curves were fitted using nonlinear regression in GraphPad Prism software. The IC50 value of each compound was calculated using the following equation: Y=1/(1+10^((LogIC50-X)×HillSlope)). […]

[2] = Pharmacokinetic test in canines; assay type: in vivo; conditions: dog; male Beagle canines, oral gavage, 5 mg/kg, plasma
Description: For the pharmacokinetic test of canines, 3 male Beagle canines (10 kg to 12 kg) were employed and fasted overnight. The canines were orally administered a dose of 5 mg/kg by gavage. Blood was collected before the administration, and at 5 minutes, 15 minutes, 30 minutes, 1 hour, 2 hours, 4 hours, 6 hours, 8 hours, and 24 hours after the administration. The blood samples were centrifuged at 6,000 g and at 2°C to 8°C for 3 minutes, and plasma was collected and stored at -20°C. The plasma at each time point was taken and mixed with 10 volumes of a 50% methanol in acetonitrile solution containing an internal standard. The mixture was vortexed for 5 minutes, and centrifuged at 4,000 rpm and at 4°C for 5 minutes. The supernatant was collected and mixed with 1 volume of water. An appropriate amount of the mixture was taken for LC-MS/MS analysis. The main pharmacokinetic parameters were analyzed by a non-compartmental model using WinNonlin 7.0 software. [Table 3] Results of Pharmacokinetic Test in Canines

Row | SMILES | IC50 (AT2R) [nM] | AUC(0-t) [1] [ng·h/mL] | Cmax [1] [ng/mL] | IC50 (hERG potassium channel) [nM] | AUC(0-t) [2] [ng·h/mL] | Cmax [2] [ng/mL]
1 | CC(C)Cc1cc(C(F)F)c(-c2nn[nH]n2)c(N2CCN(Cc3cccnn3)[C@@H](C)C2)c1 [Compound I-4, (S)-3-((4-(3-(difluoromethyl)-5-isobutyl-2-(2H-tetrazol-5-yl)phenyl)-2-methylpiperazin-1-yl)methyl)pyridazine] | 4.1 | 14100 | 4380 | > 30000 |  | 
2 | CC(C)Cc1cc(OC(F)F)c(-c2nn[nH]n2)c(N2CCN(Cc3cccnn3)[C@@H](C)C2)c1 [Compound I-5, (S)-3-((4-(3-(difluoromethoxy)-5-isobutyl-2-(2H-tetrazol-5-yl)phenyl)-2-methylpiperazin-1-yl)methyl)pyridazine] | 2.4 |  |  | 22800 | 2290 | 1320
3 | CC(C)Cc1cc(OC(F)(F)F)c(-c2nn[nH]n2)c(N2CCN(Cc3cccnn3)[C@@H](C)C2)c1 [Compound I-6, (S)-3-((4-(5-isobutyl-2-(2H-tetrazol-5-yl)-3-(trifluoromethoxy)phenyl)-2-methylpiperazin-1-yl)methyl)pyridazine] | 3.6 |  |  |  |  | 
4 | Cc1nnc(CN2CCN(c3cc(CC(C)C)cc(C(F)F)c3-c3nn[nH]n3)C[C@@H]2C)s1 [Compound I-7, (2S)-4-(3-(difluoromethyl)-2-(3H-1,2,3,4-tetrazol-5-yl)-5-isobutylphenyl)-2-methyl-1-((5-methyl-1,3,4-thiadiazol-2-yl)methyl)piperazine] | 8 |  |  |  |  | 
5 | Cc1nnc(CN2CCN(c3cc(CC(C)C)cc(OC(F)F)c3-c3nn[nH]n3)C[C@@H]2C)s1 [Compound I-8, (2S)-4-(3-((difluoromethyl)oxy)-2-(3H-1,2,3,4-tetrazol-5-yl)-5-isobutylphenyl)-2-methyl-1-((5-methyl-1,3,4-thiadiazol-2-yl)methyl) piperazine] | 2.5 |  |  |  |  | 
6 | CC(C)Cc1cc(F)c(-c2nn[nH]n2)c(N2CCN(Cc3cccnn3)[C@@H](C)C2)c1 [Control Compound I, reference compound] | 12 | 10000 | 3240 | 2800 | 1300 | 850
